Experimental data taken from ChEMBL document CHEMBL1201862, “PubChem BioAssay data set” (2004).
Active and inactive are the calls of the source.

Key:
Kallikrein-7 = Kallikrein-7 (Homo sapiens, UniProt P49862); experiment: Fluorescence Intensity-based biochemical primary high throughput dose response assay to identify activators of kallikrein-7 (K7) zymogen.
[1] = molecular target: T1, Oxysterols receptor LXR-beta (Homo sapiens, UniProt P55055); type: functional, cell-based;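 further: agonist activity at LXR measured by a cell-based luminescence readout across a dose range, run as a counterscreen for daf-12 agonists; HEK293 cells with Gal4-LXR fusion and GAL4-driven luciferase reporter; potency for activation of Gal4-LXR reporter so compounds are agonists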
T1 sequence (P55055 whole entry): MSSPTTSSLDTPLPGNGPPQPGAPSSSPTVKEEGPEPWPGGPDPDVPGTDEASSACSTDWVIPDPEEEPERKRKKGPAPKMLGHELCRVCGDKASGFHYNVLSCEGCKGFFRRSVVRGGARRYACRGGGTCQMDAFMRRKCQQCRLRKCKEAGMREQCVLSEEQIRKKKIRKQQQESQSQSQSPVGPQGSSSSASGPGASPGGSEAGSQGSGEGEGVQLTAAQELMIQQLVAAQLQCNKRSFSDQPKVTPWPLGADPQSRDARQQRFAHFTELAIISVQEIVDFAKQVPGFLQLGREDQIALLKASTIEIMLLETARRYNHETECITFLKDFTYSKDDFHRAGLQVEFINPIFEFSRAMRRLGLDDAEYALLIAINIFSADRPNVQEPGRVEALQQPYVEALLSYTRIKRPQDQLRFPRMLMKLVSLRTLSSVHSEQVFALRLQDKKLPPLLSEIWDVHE

HeLa = experiment: viability loss in HeLa cells – cell-based, ATP luminescence, cherry-pick samples, cytotoxicity control, dose response (AID 687004); type: functional; conditions: Homo sapiens
HEK293 = experiment: viability loss in HEK293T cells – cell-based, ATP luminescence, cherry-pick samples, cytotoxicity control, dose response (AID 687005); type: functional; conditions: Homo sapiens;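 further: cells exposed to compound for 48 hours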
[2] = HEK293 Cytotoxicity Assay Measured in Cell-Based System Using Plate Reader - 7071-01_Inhibitor_Dose_CherryPick_Activity_Set2.; type: functional
[3] = viability loss in A549 lung cells – cell-based, 24 h, CellTiter-Glo luminescence, cherry-picks, cytotoxicity control, dose response (AID 1053115); type: functional; conditions: A549, 24 h
[4] = inhibitors of non-replicating M. tuberculosis, dose response, luciferase, dry powder (AID 651619); type: functional; conditions: Mycobacterium tuberculosis
[5] = inhibitors of non-replicating M. tuberculosis, dose response, luciferase, dry powder (AID 651620); type: functional; conditions: Mycobacterium tuberculosis
[6] = growth inhibition of replicating M. tuberculosis, dose response, counter-screen, dry powder, IC90 (AID 651617); type: functional; conditions: Mycobacterium tuberculosis
[7] = inhibitors of TRPM1-promoter reporter in SK-MEL-5 – cell-based, luciferase, dry powder, set 9, MITF inhibitor project, dose response (AID 651588); type: functional
[8] = MITF Orthogonal Assay: MALME3 CTG Assay Measured in Cell-Based System Using Plate Reader - 2084-04_Inhibitor_Dose_DryPowder_Activity_Set6.; type: functional; conditions: MALME-3
[9] = growth inhibition of SK-MEL-5 melanoma cells – cell-based, CellTiter-Glo luminescence, dry powder, set 8, orthogonal assay for MITF inhibitor project, dose response (AID 651586); type: functional
[10] = growth inhibition of MALME3 cells – cell-based, CellTiter-Glo luminescence, dry powder, set 5, orthogonal assay for MITF inhibitor project, dose response (AID 651584); type: functional; conditions: MALME-3
[11] = MITF Orthogonal Assay: SK-MEL-5 CTG Assay Measured in Cell-Based System Using Plate Reader - 2084-02_Inhibitor_Dose_DryPowder_Activity_Set7.; type: functional
[12] = MITF: Counter assay: A375 proliferation Measured in Cell-Based System Using Plate Reader - 2084-03_Inhibitor_Dose_DryPowder_Activity_Set8.; type: functional; conditions: A-375
[13] = cytotoxicity in MITF-independent A375 cells – cell-based, CellTiter-Glo luminescence, dry powder, set 9, counter-screen for MITF modulator project, dose response (AID 651591); type: functional; conditions: A-375
[14] = inhibitors of TRPM1-promoter reporter in SK-MEL-5 – cell-based, luciferase, dry powder, set 8, MITF inhibitor project, dose response (AID 624430); type: functional
[15] = Late stage assay provider results from the probe development effort to identify selective inhibitors of heat shock protein 90 (HSP90): Absorbance-based cell proliferation assay in SKBR3 cells.; type: functional; conditions: SK-BR-3
[16] = Late stage assay provider results from the probe development effort to identify selective inhibitors of heat shock protein 90 (HSP90): Absorbance-based cell proliferation assay in MCF7 cells.; type: functional
Fatty acid synthase = Fatty acid synthase (Homo sapiens, UniProt P49327); experiment: inhibition of human FAS-TE enzyme activity – biochemical, endpoint fluorescence intensity, powder samples, SAR follow-up (AID 652164); type: functional
Chain of Fatty acid synthase (P49327 whole entry): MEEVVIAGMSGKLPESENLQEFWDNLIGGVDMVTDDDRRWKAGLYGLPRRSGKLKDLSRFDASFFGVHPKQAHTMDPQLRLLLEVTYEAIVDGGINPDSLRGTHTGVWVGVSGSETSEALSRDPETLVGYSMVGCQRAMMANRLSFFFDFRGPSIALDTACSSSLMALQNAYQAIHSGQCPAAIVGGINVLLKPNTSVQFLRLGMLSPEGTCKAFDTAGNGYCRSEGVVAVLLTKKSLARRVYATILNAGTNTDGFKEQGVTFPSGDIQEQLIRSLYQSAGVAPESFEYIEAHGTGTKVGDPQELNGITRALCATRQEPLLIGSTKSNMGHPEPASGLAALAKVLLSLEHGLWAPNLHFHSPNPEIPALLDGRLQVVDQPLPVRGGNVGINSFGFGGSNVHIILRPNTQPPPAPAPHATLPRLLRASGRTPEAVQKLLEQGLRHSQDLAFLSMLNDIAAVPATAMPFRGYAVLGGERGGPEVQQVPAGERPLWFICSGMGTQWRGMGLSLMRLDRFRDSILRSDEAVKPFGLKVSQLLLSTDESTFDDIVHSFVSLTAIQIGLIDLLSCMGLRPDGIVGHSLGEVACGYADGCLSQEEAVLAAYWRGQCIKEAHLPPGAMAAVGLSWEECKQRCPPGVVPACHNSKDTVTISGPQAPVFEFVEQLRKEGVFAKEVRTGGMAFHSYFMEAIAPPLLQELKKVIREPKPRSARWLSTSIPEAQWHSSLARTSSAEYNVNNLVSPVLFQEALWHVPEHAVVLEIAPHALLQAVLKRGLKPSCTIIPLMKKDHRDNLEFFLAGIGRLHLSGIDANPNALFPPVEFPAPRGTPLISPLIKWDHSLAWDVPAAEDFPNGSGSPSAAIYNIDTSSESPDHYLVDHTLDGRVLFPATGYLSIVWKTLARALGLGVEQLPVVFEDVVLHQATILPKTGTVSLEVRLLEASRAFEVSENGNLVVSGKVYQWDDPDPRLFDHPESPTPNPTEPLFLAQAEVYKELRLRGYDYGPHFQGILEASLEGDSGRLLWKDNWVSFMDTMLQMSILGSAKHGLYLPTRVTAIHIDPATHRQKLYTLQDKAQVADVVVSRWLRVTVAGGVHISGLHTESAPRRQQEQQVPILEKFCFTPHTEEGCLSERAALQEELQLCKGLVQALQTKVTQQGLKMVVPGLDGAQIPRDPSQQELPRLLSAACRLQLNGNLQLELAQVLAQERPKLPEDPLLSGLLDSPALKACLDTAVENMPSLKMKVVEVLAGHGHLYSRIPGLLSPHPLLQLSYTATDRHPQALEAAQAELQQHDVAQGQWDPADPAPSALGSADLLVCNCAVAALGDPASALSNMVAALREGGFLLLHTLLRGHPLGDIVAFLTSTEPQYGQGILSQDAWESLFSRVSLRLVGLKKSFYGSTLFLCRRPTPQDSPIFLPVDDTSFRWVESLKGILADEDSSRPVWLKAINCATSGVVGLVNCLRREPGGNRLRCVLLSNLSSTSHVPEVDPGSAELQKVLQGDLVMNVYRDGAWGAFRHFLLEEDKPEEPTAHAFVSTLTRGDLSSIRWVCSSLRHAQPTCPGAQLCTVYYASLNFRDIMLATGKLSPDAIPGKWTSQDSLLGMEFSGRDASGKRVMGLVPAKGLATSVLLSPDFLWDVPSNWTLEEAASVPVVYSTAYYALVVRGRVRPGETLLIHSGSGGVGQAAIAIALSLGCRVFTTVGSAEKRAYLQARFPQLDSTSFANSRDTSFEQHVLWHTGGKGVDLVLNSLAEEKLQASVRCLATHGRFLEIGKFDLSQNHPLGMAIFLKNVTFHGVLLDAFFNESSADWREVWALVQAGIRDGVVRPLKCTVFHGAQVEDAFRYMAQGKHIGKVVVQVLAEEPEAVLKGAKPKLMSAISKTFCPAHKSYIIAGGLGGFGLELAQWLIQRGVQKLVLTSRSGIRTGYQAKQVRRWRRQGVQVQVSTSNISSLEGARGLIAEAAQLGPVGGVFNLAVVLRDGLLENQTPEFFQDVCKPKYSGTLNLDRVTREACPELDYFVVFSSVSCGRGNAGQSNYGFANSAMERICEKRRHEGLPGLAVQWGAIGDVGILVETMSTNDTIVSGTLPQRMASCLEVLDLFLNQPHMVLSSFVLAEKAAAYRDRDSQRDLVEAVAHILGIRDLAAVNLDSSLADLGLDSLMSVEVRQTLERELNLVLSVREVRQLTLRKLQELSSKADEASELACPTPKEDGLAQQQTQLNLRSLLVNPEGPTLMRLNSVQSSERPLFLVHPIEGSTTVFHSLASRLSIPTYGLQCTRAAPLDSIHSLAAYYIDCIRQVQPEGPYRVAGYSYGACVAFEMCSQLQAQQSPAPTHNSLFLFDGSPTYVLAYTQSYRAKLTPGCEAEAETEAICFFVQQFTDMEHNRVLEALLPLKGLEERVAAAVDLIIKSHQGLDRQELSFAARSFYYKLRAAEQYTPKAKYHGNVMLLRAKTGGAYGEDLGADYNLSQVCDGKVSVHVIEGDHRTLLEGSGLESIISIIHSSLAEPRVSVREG

[17] = molecular target: T2, High affinity choline transporter 1 (Homo sapiens, UniProt Q9GZV3); experiment: inhibition of SLC5A7-mediated choline transport – cell-based, HEK-293 hCHT, [3H]-choline uptake, dose response (AID 652177); type: functional
T2 sequence (Q9GZV3 whole entry): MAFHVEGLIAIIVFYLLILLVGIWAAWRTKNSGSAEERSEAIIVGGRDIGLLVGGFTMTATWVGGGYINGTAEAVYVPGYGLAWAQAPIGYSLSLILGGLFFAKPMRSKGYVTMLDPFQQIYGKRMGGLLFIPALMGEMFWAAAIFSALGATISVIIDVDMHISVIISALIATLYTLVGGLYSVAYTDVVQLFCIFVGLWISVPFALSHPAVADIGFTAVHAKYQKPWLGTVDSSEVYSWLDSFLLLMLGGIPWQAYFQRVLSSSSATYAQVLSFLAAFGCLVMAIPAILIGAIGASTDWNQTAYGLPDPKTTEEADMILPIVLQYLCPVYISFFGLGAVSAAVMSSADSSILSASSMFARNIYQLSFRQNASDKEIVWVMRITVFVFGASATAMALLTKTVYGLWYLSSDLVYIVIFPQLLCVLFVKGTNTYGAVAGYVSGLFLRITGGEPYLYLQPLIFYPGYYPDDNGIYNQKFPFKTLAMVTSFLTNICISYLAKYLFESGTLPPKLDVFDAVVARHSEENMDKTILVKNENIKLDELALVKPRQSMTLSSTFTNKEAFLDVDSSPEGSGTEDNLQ

[18] = HepG2 cell viability loss – cherry-picked samples, cytotoxicity control, dose response (AID 1053183); type: functional, cell-based

Chain of Kallikrein-7 (P49862 whole entry, the tested form may be a part): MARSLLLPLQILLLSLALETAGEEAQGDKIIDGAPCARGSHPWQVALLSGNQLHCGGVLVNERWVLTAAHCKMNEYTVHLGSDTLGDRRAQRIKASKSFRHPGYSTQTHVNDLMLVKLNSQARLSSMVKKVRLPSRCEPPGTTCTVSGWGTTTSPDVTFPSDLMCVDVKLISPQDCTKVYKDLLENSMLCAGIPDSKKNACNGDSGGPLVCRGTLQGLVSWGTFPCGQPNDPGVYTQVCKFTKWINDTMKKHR

## CSc1ccc(/C=C/C(=O)OCC(=O)NC2CCS(=O)(=O)C2)cc1 (configuration not stated)
Kallikrein-7
  EC50: > 69.5 µM (inactive)

## CC(C)C(N)c1csc(Nc2nncc3ccccc23)n1 (configuration not stated)
[1]
  EC50: > 67.1 µM (inactive)

## Cc1ccccc1CN(C)C[C@H]1OCc2cn(nn2)CCCC(=O)N([C@@H](C)CO)C[C@H]1C
HeLa
  AC50: 14.7 µM (active)
HEK293
  AC50: 46.7 µM (active)
[2]
  AC50: 46.7 µM (active)

## N#Cc1ccc(-c2ccc3c(c2)[C@H]2[C@H](CCN2C(=O)C2CCCCC2)[C@H](CO)N3)cc1
[3]
  AC50: 42 µM (active)

## c1ccc(-n2cc(CSc3nnc(C4CCCC4)o3)nn2)cc1
[4]
  IC90: 1 µM (active)
[5]
  IC90: 1 µM (active)
[6]
  IC90: 125 µM (active)

## CC(C)N1CCN(C2=C(Nc3ccc(F)cc3)C(=O)c3ccccc3C2=O)CC1
[7]
  AC50: 9.77 µM (active)
[8]
  AC50: 38.6 µM (active)
[9]
  AC50: > 70 µM (inactive)
[10]
  AC50: 38.6 µM (active)
[11]
  AC50: 10.5 µM (active)
[12]
  AC50: > 70 µM (inactive)
[13]
  AC50: > 70 µM (inactive)
[14]
  AC50: 3.6 µM (active)

## COc1ccc(NC(=O)c2ccc(NC(=O)c3coc(=O)c(Br)c3)cc2)cc1
[15]
  IC50: 27.2 µM (inactive)
[16]
  IC50: 12.1 µM (inactive)

## CCCCC(=O)Nc1nc(-c2ccc(C(=O)N3CCOCC3)cc2)cs1
Fatty acid synthase
  IC50: 35.3 µM (inactive)

## COc1ccc(C(=O)NCc2cc(C)n(C)n2)cc1OC1CCN(C(C)C)CC1
[17]
  IC50: 65.5 µM (inconclusive)

## O=S(=O)(c1ccc(F)cc1)N1C[C@@H]2N[C@H](C1)[C@@H]2c1ccc(/C=C/c2ccccc2)cc1
[18]
  AC50: 19.1 µM (active)
